# Measured values as given in US20070254313A1, “Gnal Splice Variant and Uses Thereof” (AstraZeneca AB, priority 2003, published 2007).
# Biological target: T1, human adenosine A2a receptor (Homo sapiens, UniProt P29274)
# T1 construct: β1 and γ2 baculoviruses from PerkinElmer Biosignal; host or cells: Sf9 insect cells infected with recombinant baculoviruses; membranes
# Assay: Agonist-induced [35S]-GTPγS binding assay on A2a receptor, Sf9 membranes
# Format: biochemical
# Conditions: Sf9 cells expressing adenosine A2a receptor, XLGolf, and β1γ2 dimer
# Protocol: After infection for 48 hours, cells were harvested for membrane preparation. Cells were harvested by centrifugation at 500×g at 4° C. The cell pellets were washed twice with Dulbecco's phosphate-buffered saline (DPBS) at pH 7.4 and suspended in ice-cold 10 mM Tris-HCl with 5 mM EDTA (TE)(pH 7.4) containing a protease inhibitor cocktail (Roche Applied Science, Indianapolis, Ind.) and sonicated. Following centrifugation at 1000×g, membranes were collected from the supernatant by centrifugation at 20,000×g for 30 min at 4° C. The membrane fraction was stored at −80° C. in TE containing 5% glycerol.
# Membranes from Sf9 cells expressing the ADORA2A, XLGolf, β1, and γ2 subunits were resuspended in the reaction buffer (20 mM HEPES, pH 7.4, 100 mM NaCl, 10 mM MgCl2, 1 mM EDTA, 1 mM DTT) including protease inhibitor. Agonist-induced [^35S]-GTPγS binding assay was performed for 90 min at room temperature in 96 well-microplates with a volume of 200 μl per well, and containing 5 μg of membranes, agonist at a concentration range of 10^−12 to 10^−4 M, 10 μM GDP, and 400 pM [^35S]-GTPγS. Non-specific binding was determined in the presence of 10 μM unlabeled GTPαS. Incubations were terminated by rapid filtration of the samples throught glass fiber filters (Whatman GF/C). […] Radioactivity was measured using a Packard Bioscience Top Count NXT Microplate Scintillation microplate reader. […]
# T1 sequence (P29274 whole entry): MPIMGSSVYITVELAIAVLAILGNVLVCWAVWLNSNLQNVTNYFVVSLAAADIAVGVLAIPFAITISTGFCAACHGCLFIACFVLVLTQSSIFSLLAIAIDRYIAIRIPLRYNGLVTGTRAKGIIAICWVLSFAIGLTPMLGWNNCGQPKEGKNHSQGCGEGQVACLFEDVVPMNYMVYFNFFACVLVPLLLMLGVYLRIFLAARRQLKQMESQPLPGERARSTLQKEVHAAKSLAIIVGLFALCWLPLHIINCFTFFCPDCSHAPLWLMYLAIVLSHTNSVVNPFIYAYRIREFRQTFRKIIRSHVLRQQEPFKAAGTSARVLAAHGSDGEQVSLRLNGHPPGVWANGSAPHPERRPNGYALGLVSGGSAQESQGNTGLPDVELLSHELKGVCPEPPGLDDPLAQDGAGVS
smiles,measurement,value
Nc1nc(Nc2ccccc2)nc2c1ncn2[C@@H]1O[C@H](CO)[C@@H](O)[C@H]1O [CV1808],potencies of ADA-resistant adenosine receptor ligands,comparable
